smiles,measurement,value
"CN(C)CCN(c1ccc(N/C(=C2\C(=O)Nc3ccccc32)c2ccc(CN)cc2)cc1)S(C)(=O)=O [Example 426, (Z)-3-{1-[4-(N-(2-dimethylaminoethyl)-N-methylsulphonyl-amino)-phenylamino]-1-(4-aminomethyl-phenyl)-methylidene}-2-indolinone]",melting point,203 to 205 °C
"CN(C)CC(=O)NCc1ccc(N/C(=C2\C(=O)Nc3ccccc32)c2ccccc2)cc1 [Example 74, (Z)-3-[1-(4-dimethylaminomethylcarbonylaminomethyl-phenylamino)-1-phenyl-methylidene}-2-indolinone]",melting point,200 to 205 °C
"CC(=O)NCc1ccc(/C(Nc2cccc(N(CCN(C)C)S(C)(=O)=O)c2)=C2/C(=O)Nc3ccccc32)cc1 [Example 423, (Z)-3-{1-[3-(N-(2-dimethylaminoethyl)-N-methylsulphonyl-amino)-phenylamino]-1-(4-acetylaminomethyl-phenyl)-methylidene}-2-indolinone]",melting point,180 °C
"O=C(O)CCNCc1ccc(N/C(=C2\C(=O)Nc3ccc([N+](=O)[O-])cc32)c2ccccc2)cc1 [Example 242, (Z)-3-{1-[4-(2-carboxy-ethylaminomethyl)-phenylamino]-1-phenyl-methylidene}-5-nitro-2-indolinone]",melting point,220 to 222 °C
"CN(Cc1ccccc1)Cc1ccc(N/C(=C2\C(=O)Nc3ccc([N+](=O)[O-])cc32)c2ccccc2)cc1 [Example 238, (Z)-3-{1-[4-(N-benzyl-N-methyl-aminomethyl)-phenylamino]-1-phenyl-methylidene}-5-nitro-2-indolinone]",melting point,200 to 201 °C
"CN(C)C(=O)CN(c1ccc(N/C(=C2\C(=O)Nc3ccccc32)c2ccccc2)cc1)S(C)(=O)=O [Example 193, (Z)-3-{1-[4-(N-dimethylaminocarbonylmethyl-N-methylsulphonylamino)-phenylamino]-1-phenyl-methylidene}-2-indolinone]",melting point,260 to 262 °C
"CCC(=O)N(CCN1CCOCC1)c1ccc(N/C(=C2\C(=O)Nc3ccc([N+](=O)[O-])cc32)c2ccccc2)cc1 [Example 335, (Z)-3-{1-[4-(N-(2-morpholinoethyl)-N-propionyl-amino)-phenylamino]-1-phenyl-methylidene}-5-nitro-2-indolinone]",melting point,232 °C
"CC(=O)NCc1ccc(N/C(=C2\C(=O)Nc3ccccc32)c2ccccc2)cc1 [Example 56, (Z)-3-[1-(4-acetylaminomethyl-phenylamino)-1-phenyl-methylidene]-2-indolinone]",melting point,207 to 210 °C
"CCS(=O)(=O)N(CC(N)=O)c1ccc(N/C(=C2\C(=O)Nc3ccccc32)c2ccccc2)cc1 [Example 299, (Z)-3-{1-[4-(N-aminocarbonylmethyl-N-ethylsulphonyl-amino)-phenylamino]-1-phenyl-methylidene}-2-indolinone]",melting point,259 °C
"Nc1cccc(N/C(=C2\C(=O)Nc3ccccc32)c2ccccc2)c1 [Example 69, (Z)-3-[1-(3-aminophenylamino)-1-phenyl-methylidene]-2-indolinone]",melting point,267 to 268 °C
"O=C1Nc2ccc([N+](=O)[O-])cc2/C1=C(/Nc1ccc(CN2CCCCC2)cc1)c1ccc(Cn2ccnc2)cc1 [Example 439, (Z)-3-{1-[4-piperidinomethyl-phenylamino]-1-[4-(imidazol-1-yl-methyl)-phenyl]-methylidene}-5-nitro-2-indolinone]",melting point,226 to 228 °C
"CN(C)Cc1ccc(N/C(=C2\C(=O)Nc3ccccc32)c2ccc(Cl)cc2)cc1 [Example 221, (Z)-3-[1-(4-dimethylaminomethyl-phenylamino)-1-(4-chlorophenyl)-methylidene]-2-indolinone]",melting point,213 °C
"CCOC(=O)C1CCN(CCc2ccc(N/C(=C3\C(=O)Nc4ccc([N+](=O)[O-])cc43)c3ccccc3)cc2)CC1 [Example 262, (Z)-3-{1-[4-(2-(4-ethoxycarbonyl-piperidino)-ethyl)-phenylamino]-1-phenyl-methylidene}-5-nitro-2-indolinone]",melting point,208 to 213 °C
"O=C1Nc2ccccc2/C1=C(/Nc1ccc(C(=O)N2CCCCC2)cc1)c1ccccc1 [Example 387, (Z)-3-{1-[4-(piperidinocarbonyl)-phenylamino]-1-phenyl-methylidene}-2-indolinone]",melting point,212 to 214 °C
"O=C(O)CNS(=O)(=O)c1ccc(N/C(=C2\C(=O)Nc3ccc([N+](=O)[O-])cc32)c2ccccc2)cc1 [Example 411, (Z)-3-{1-[4-(carboxymethylaminosulphonyl)-phenylamino]-1-phenyl-methylidene}-5-nitro-2-indolinone]",melting point,177 to 180 °C (dec.)
"CC(=O)N1CCN(Cc2ccc(N/C(=C3\C(=O)Nc4ccc([N+](=O)[O-])cc43)c3ccccc3)cc2)CC1 [Example 246, (Z)-3-{1-[4-(4-acetylpiperazin-1-ylmethyl)-phenylamino]-1-phenyl-methylidene}-5-nitro-2-indolinone]",melting point,275 to 277 °C
"CCS(=O)(=O)N(CC(=O)NCCN(C)C)c1ccc(N/C(=C2\C(=O)Nc3ccc([N+](=O)[O-])cc32)c2ccccc2)cc1 [Example 295, (Z)-3-{1-[4-(N-(2-dimethylamino-ethylaminocarbonylmethyl)-N-ethylsulphonyl-amino)-phenylamino]-1-phenyl-methylidene}-5-nitro-2-indolinone]",melting point,155 °C
"COc1ccc(/C(Nc2ccc(CN(C)C)cc2)=C2/C(=O)Nc3ccccc32)cc1 [Example 215, (Z)-3-[1-(4-dimethylaminomethyl-phenylamino)-1-(4-methoxyphenyl)-methylidene]-2-indolinone]",melting point,206 to 207 °C
"CC(C)(C)OC(=O)N(Cc1ccccc1)Cc1ccc(N/C(=C2\C(=O)Nc3ccc([N+](=O)[O-])cc32)c2ccccc2)cc1 [Example 236, (Z)-3-{1-[4-(N-benzyl-N-tert.butoxycarbonyl-aminomethyl)-phenylamino]-1-phenyl-methylidene}-5-nitro-2-indolinone]",melting point,202 to 203 °C (dec.)
"CC(C)C(=O)N(CCN(C)C)c1ccc(N/C(=C2\C(=O)Nc3ccccc32)c2ccccc2)cc1 [Example 342, (Z)-3-{1-[4-(N-(2-dimethylaminoethyl)-N-isopropylcarbonyl-amino)-phenylamino]-1-phenyl-methylidene}-2-indolinone]",melting point,280 to 282 °C
"COC(=O)c1ccc(/C(Nc2ccc(CN3CCCCC3)cc2)=C2/C(=O)Nc3ccc([N+](=O)[O-])cc32)cc1 [Example 444, (Z)-3-[1-(4-piperidinomethyl-phenylamino)-1-(4-methoxycarbonyl-phenyl)-methylidene]-5-nitro-2-indolinone]",melting point,178 to 183 °C
"CCOC(=O)CN(C(=O)CC)c1ccc(N/C(=C2\C(=O)Nc3ccccc32)c2ccccc2)cc1 [Example 356, (Z)-3-{1-[4-(N-ethoxycarbonylmethyl-N-propionyl-amino)-phenylamino]-1-phenyl-methylidene}-2-indolinone]",melting point,229 to 232 °C
"CC(C)S(=O)(=O)N(CC(=O)N(C)C)c1ccc(N/C(=C2\C(=O)Nc3ccccc32)c2ccccc2)cc1 [Example 304, (Z)-3-{1-[4-(N-(dimethylaminocarbonylmethyl)-N-isopropylsulphonyl-amino)-phenylamino]-1-phenyl-methylidene}-2-indolinone]",melting point,146 to 148 °C

# Reference: patent US6855710B2, “Substituted indolines with an inhibitory effect on various kinases and complexes of CDKs” (Boehringer Ingelheim Pharma KG, priority 1998, dated 2005)
